Like-named read-outs stand apart in the source and are kept apart here.
Columns and labels:
[1] = tested on: human placenta; conditions: cited from earlier work
[2] = tested on: term placental explants; assay: Term placental explants treated with LPS and Cytochalasin-D, TNF-α ELISA; type: cell-based, human; conditions: 2 LPS doses and Cytochalasin-D (9.8 uM)
Text: Human first and second trimester placentas from elective termination of normal pregnancies (8 to 23 weeks gestation) were collected. The second trimester placenta samples were obtained after elective terminations induced by mechanical evacuation only. Human first and second trimester and term placentas were also collected from vaginal delivery or C-section. A placental explant system was used to preserve the normal cellular architecture. Placental samples from term and third trimester were collected from the maternal side as previously described (Kim et al., 2018, Am J Reprod Immunol, December 26: e13080). Placental explants were processed immediately after collection and prepared as previously described (Peltier et al., 2013, Am J Reprod Immunol, 69: 142e149). […]
Supernatant cytokine concentrations were analyzed using Ready-Set-Go™ ELISA kits (eBioscience; San Diego, Calif.). The measured cytokines included TNF-a, IL-1b and IL-10 and the concentrations were expressed in pg/ml.
For this reason, the kit was utilized for all of the following experiments to isolate EVs. […] Media were collected and analyzed. […] THP-1 cell culture media was collected after 24 h, and TNF-α levels were analyzed by ELISA (FIG. 2E). […]

Row | Compound | effect on LPS induced inflammation and TNF-α production ([1]; Speer et al., 2017, listed as pentoxifylline) | effect on LPS induced inflammation and TNF-α production ([1]; Speer et al., 2017) | TNF-α production [2]
1 | CC(=O)CCCCn1c(=O)c2c(ncn2C)n(C)c1=O [Pentoxixyline, pentoxifylline] | inhibits LPS induced TNF-α | inhibited LPS induced inflammation and TNF-α production | –
2 | C=C1[C@@H](C)[C@H]2[C@H](Cc3ccccc3)NC(=O)[C@]23[C@H](OC(C)=O)/C=C/[C@@](C)(O)C(=O)[C@@H](C)C/C=C/[C@H]3[C@@H]1O [Cytoclasin-D, Cytochalasin-D] | – | – | 18979 ± 7626 pg/mL
